Literature values as cited in patent publication US20250152507A1, “SUBLINGUAL COMPOSITIONS FOR ERECTILE DYSFUNCTION” (Woody's Medical LLC, priority 2023, published 2025).

System: men with mild ED
Details: reported in C. McMahon et al., BMJ 2006

Q: For `CN1CCc2cccc3c2[C@H]1Cc1ccc(O)c(O)c1-3` [Apomorphine, apomorphine], which “effect in men with mild ED” value is on record?
A: only a small effect
